Results as given in patent publication US7863271B2, “2-aminobenzoxazole carboxamides as 5HT3 modulators” (Albany Molecular Research, Inc., priority 2006, dated 2011).
Structures can show the parent of a compound that is named as a salt.

Each molecule was assayed against T1, 5-HT3 (Homo sapiens, UniProt P46098) (assay: Compound affinity for the human 5-HT3 receptor (Assay B), SPA radioligand binding with [9-methyl-3H]BRL-43694). Settings: Assay B (method B unless otherwise annotated); read-out: 5-HT3 Ki.
T1 sequence (P46098 24-478): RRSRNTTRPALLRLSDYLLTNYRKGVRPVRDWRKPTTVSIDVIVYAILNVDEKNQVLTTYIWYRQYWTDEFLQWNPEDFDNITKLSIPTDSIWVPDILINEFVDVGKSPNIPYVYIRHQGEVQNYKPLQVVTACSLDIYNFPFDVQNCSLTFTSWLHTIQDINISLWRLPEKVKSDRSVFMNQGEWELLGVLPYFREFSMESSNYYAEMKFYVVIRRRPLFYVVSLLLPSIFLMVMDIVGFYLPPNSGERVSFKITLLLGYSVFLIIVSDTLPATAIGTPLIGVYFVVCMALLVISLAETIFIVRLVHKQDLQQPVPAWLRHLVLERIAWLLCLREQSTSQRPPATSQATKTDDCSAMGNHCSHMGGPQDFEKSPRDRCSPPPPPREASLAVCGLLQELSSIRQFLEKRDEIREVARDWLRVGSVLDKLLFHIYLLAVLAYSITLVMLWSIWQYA
Set-up: purchased Perkin Elmer
Summary of the method: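 Ten competitor concentrations in duplicate; specific binding (total minus nonspecific) fitted for IC50, converted to Ki by Cheng-Prusoff.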

| SMILES | Ki |
| --- | --- |
| CN1[C@@H]2CCC[C@H]1C[C@@H](NC(=O)c1cc(F)cc3oc(N)nc13)C2 [Example 121, Endo-2-amino-6-fluoro-N-(9-Methyl-9-azabicyclo[3.3.1]nonan-3-yl)benzoxazole-4-carboxamide Hydrochloride] | 9 nM |
| C[C@H]1CN(C)C[C@H](C)N1c1nc2c(C(=O)NC3CC4CCCC(C3)N4C)cccc2o1 (stereo partly drawn) [Example 122, Endo-N-(9-methyl-9-azabicyclo[3.3.1]nonan-3-yl)-2-((2S,6S-2,4,6-trimethylpiperazin-1-yl)benzoxazole-4-carboxamide Hydrochloride] | 2.3 nM |
| C[C@H]1CS(=O)(=O)C[C@H](C)N1c1nc2c(C(=O)NC3CC4CCCC(C3)N4C)cccc2o1 (stereo partly drawn) [Example 123, Endo-N-(9-methyl-9-azabicyclo[3.3.1]nonan-3-yl)-2-((3S,5S)/(3R,5R)-3,5-dimethylthiomorpholine 1,1-dioxide)benzoxazole-4-carboxamide Hydrochloride] | 57 nM |
| C[C@H]1CN(C)C(=O)[C@H](C)N1c1nc2c(C(=O)NC3CN4CCC3CC4)cccc2o1 (stereo partly drawn) [Example 124, N-(Quinuclidine-8-yl)-2-((2S,6S)-2,4,6-trimethyl-3-oxopiperazine-1-yl)benzoxazole-4-carboxamide Hydrochloride] | 17.7 nM |
| COC(=O)N1C[C@H](C)N(c2nc3c(C(=O)NC4CC5CCCC(C4)N5C)cccc3o2)[C@@H](C)C1 (stereo partly drawn) [Example 125, Endo-(3S,5S)-Methyl 3,5-dimethyl-4-(4-(9-methyl-9-azabicyclo[3.3.1]nonan-3-ylcarbamoyl)benzoxazol-2-yl)piperazine-1-carboxylate Hydrochloride] | 2.1 nM |
| CN1C2CCCC1CC(NC(=O)c1cccc3oc(N4CCN[C@H]5CCCC[C@@H]54)nc13)C2 (stereo partly drawn) [Example 126, Endo-N-(9-Methyl-9-azabicyclo[3.3.1]nonan-3-yl)-2-((4aS,8aS)-octahydroquinoxalin-1(2H)-yl)benzoxazole-4-carboxamide Dihydrochloride] | 16.5 nM |
| Cc1cc(C(=O)NC2CN3CCC2CC3)c2nc(N)oc2c1 [Example 127, (S)—N-(quinulidin-8-yl)-2-amino-6-methylbenzoxazole-4-carboxamide Hydrochloride] | 20 nM |
| CN1[C@@H]2CCC[C@H]1C[C@@H](NC(=O)c1c(F)ccc3oc(N)nc13)C2 [Example 128, Endo-N-(9-Methyl-9-azabicyclo[3.3.1]nonan-3-yl)-2-amino-5-fluorobenzoxazole-4-carboxamide Hydrochloride] | 124 nM |
| Cc1cc(C(=O)N[C@H]2C[C@H]3CCC[C@@H](C2)N3C)c2nc(N)oc2c1 [Example 129, Endo-2-amino-6-methyl-N-(9-Methyl-9-azabicyclo[3.3.1]nonan-3-yl)benzoxazole-4-carboxamide Hydrochloride] | 10.7 nM |
| C[C@H]1CN(C(=O)C(C)(C)C)C[C@H](C)N1c1nc2c(C(=O)NC3CC4CCCC(C3)N4C)cccc2o1 (stereo partly drawn) [Example 130, Endo-N-(9-methyl-9-azabicyclo[3.3.1]nonan-3-yl)-2-((2S,6S)-2,6-dimethyl-4-pivaloylpiperazin-1-yl)benzoxazole-4-carboxamide Hydrochloride] | 2.8 nM |
| C[C@H]1CN(S(C)(=O)=O)C[C@H](C)N1c1nc2c(C(=O)NC3CC4CCCC(C3)N4C)cccc2o1 (stereo partly drawn) [Example 131, Endo-N-(9-methyl-9-azabicyclo[3.3.1]nonan-3-yl)-2-((2S,6S-2,6-dimethyl-4-(methylsulfonyl)piperazin-1-yl)benzoxazole-4-carboxamide Hydrochloride] | 1 nM |
| C[C@H]1CN(C(=O)C2CCCCC2)C[C@H](C)N1c1nc2c(C(=O)NC3CC4CCCC(C3)N4C)cccc2o1 (stereo partly drawn) [Example 132, Endo-N-(9-methyl-9-azabicyclo[3.3.1]nonan-3-yl)-2-((2S,6S)-4-(cyclohexanecarbonyl)-2,6-dimethylpiperazin-1-yl)benzoxazole-4-carboxamide Hydrochloride] | 1.9 nM |
| C[C@H]1CN(C(=O)C2CCCC2)C[C@H](C)N1c1nc2c(C(=O)NC3CC4CCCC(C3)N4C)cccc2o1 (stereo partly drawn) [Example 133, Endo-N-(9-methyl-9-azabicyclo[3.3.1]nonan-3-yl)-2-((2S,6S-4-(cyclopentanecarbonyl)-2,6-dimethylpiperazin-1-yl)benzoxazole-4-carboxamide Hydrochloride] | 1.8 nM |
| CCC(=O)N1C[C@H](C)N(c2nc3c(C(=O)NC4CC5CCCC(C4)N5C)cccc3o2)[C@@H](C)C1 (stereo partly drawn) [Example 134, Endo-N-(9-methyl-9-azabicyclo[3.3.1]nonan-3-yl)-2-((2S,6S)-2,6-dimethyl-4-propionylpiperazin-1-yl)benzoxazole-4-carboxamide Hydrochloride] | 1.7 nM |
| CC(C)C(=O)N1C[C@H](C)N(c2nc3c(C(=O)NC4CC5CCCC(C4)N5C)cccc3o2)[C@@H](C)C1 (stereo partly drawn) [Example 135, Endo-N-(9-methyl-9-azabicyclo[3.3.1]nonan-3-yl)-2-((2S,6S)-4-isobutyryl-2,6-dimethylpiperazin-1-yl)benzoxazole-4-carboxamide Hydrochloride] | 2 nM |
| C[C@H]1CN(C(=O)N(C)C)C[C@H](C)N1c1nc2c(C(=O)NC3CC4CCCC(C3)N4C)cccc2o1 (stereo partly drawn) [Example 136, Endo-N-(9-methyl-9-azabicyclo[3.3.1]nonan-3-yl)-2-((2S,6S)-2,6-dimethyl-4-(dimethylcarbamoyl)piperazin-1-yl)benzoxazole-4-carboxamide Hydrochloride] | 2.6 nM |
| C[C@H]1CN(CC(F)(F)F)C[C@H](C)N1c1nc2c(C(=O)NC3CC4CCCC(C3)N4C)cccc2o1 (stereo partly drawn) [Example 137, Endo-N-(9-methyl-9-azabicyclo[3.3.1]nonan-3-yl)-2-((2S,6S)-2,6-dimethyl-4-(2,2,2-trifluoroethyl)piperazin-1-yl)benzoxazole-4-carboxamide Hydrochloride] | 1.8 nM |
| CC(C)COC(=O)N1C[C@H](C)N(c2nc3c(C(=O)NC4CC5CCCC(C4)N5C)cccc3o2)[C@@H](C)C1 (stereo partly drawn) [Example 138, Endo-N-(9-methyl-9-azabicyclo[3.3.1]nonan-3-yl)-2-((2S,6S)-4-(isobutoxycarbonyl)-2,6-dimethylpiperazin-1-yl)benzoxazole-4-carboxamide Hydrochloride] | 2.4 nM |
| Nc1nc2c(C(=O)NC3CN4CCC3CC4)c(F)ccc2o1 [Example 139, (S)—N-(quinulidin-8-yl)-2-amino-5-fluorobenzoxazole-4-carboxamide Hydrochloride] | 67.4 nM |
| C[C@H]1CN(C(=O)N2CCCC2)C[C@H](C)N1c1nc2c(C(=O)NC3CC4CCCC(C3)N4C)cccc2o1 (stereo partly drawn) [Example 140, Endo-N-(9-methyl-9-azabicyclo[3.3.1]nonan-3-yl)-2-((2S,6S)-2,6-dimethyl-4-(pyrrolidine-1-carbonyl)piperazin-1-yl)benzoxazole-4-carboxamide hydrochloride] | 2.2 nM |
| C[C@H]1CN(C(=O)N2CCCCC2)C[C@H](C)N1c1nc2c(C(=O)NC3CC4CCCC(C3)N4C)cccc2o1 (stereo partly drawn) [Example 141, Endo-N-(9-methyl-9-azabicyclo[3.3.1]nonan-3-yl)-2-((2S,6S)-2,6-dimethyl-4-(piperidine-1-carbonyl)piperazin-1-yl)benzoxazole-4-carboxamide hydrochloride] | 1.8 nM |
| C[C@H]1CN(Cc2ccccc2)C(=O)[C@H](C)N1c1nc2c(C(=O)N[C@@H]3CN4CCC3CC4)cccc2o1 [Example 142, (S)—N-(quinuclidine-8-yl) 2-((2S,6S)-4-benzyl-2,6-dimethyl-3-oxopiperazine-1-yl)benzoxazole-4-carboxamide Hydrochloride] | 11.5 nM |
| CC(C)OC(=O)N1C[C@H](C)N(c2nc3c(C(=O)NC4CC5CCCC(C4)N5C)cccc3o2)[C@@H](C)C1 (stereo partly drawn) [Example 143, Endo-N-(9-methyl-9-azabicyclo[3.3.1]nonan-3-yl)-2-((2S,6S)-4-(isopropoxycarbonyl)-2,6-dimethylpiperazin-1-yl)benzoxazole-4-carboxamide Hydrochloride] | 1.4 nM |
| CCOC(=O)N1C[C@H](C)N(c2nc3c(C(=O)NC4CC5CCCC(C4)N5C)cccc3o2)[C@@H](C)C1 (stereo partly drawn) [Example 144, Endo-N-(9-methyl-9-azabicyclo[3.3.1]nonan-3-yl)-2-((2S,6S)-4-(ethoxycarbonyl)-2,6-dimethylpiperazin-1-yl)benzoxazole-4-carboxamide Hydrochloride] | 1 nM |
| Cc1nc[nH]c1CNC(=O)c1cc(Cl)cc2oc(N)nc12 [Example 145, N-((4-methyl-1H-imidazol-5-yl)methyl)-2-amino-6-chlorobenzoxazole-4-carboxamide] | 127 nM |
| CC1CN(C(=O)N2CCCC2)CC(C)N1c1nc2c(C(=O)NC3CC4CCCC(C3)N4)cccc2o1 [Example 146, Endo-N-(9-azabicyclo[3.3.1]nonan-3-yl)-2-((2S,6S)-2,6-dimethyl-4-(pyrrolidine-1-carbonyl)piperazin-1-yl)benzoxazole-4-carboxamide hydrochloride] | 32.2 nM |
| C[C@H]1CN(Cc2ccccc2)C[C@H](C)N1c1nc2c(C(=O)NC3CC4CCCC(C3)N4C)cccc2o1 (stereo partly drawn) [Example 148, Endo-N-(9-methyl-9-azabicyclo[3.3.1]nonan-3-yl)-2-((2S,6S)-4-benzyl-2,6-dimethylpiperazin-1-yl)benzoxazole-4-carboxamide Hydrochloride] | 1.6 nM |
| CC[C@@H]1COCCN1c1nc2c(C(=O)NC3CC4CCCC(C3)N4C)cccc2o1 (stereo partly drawn) [Example 151, Endo-N-(9-Methyl-9-azabicyclo[3.3.1]nonan-3-yl)-2-((R)-3-ethylmorpholino)-benzoxazole-4-carboxamide Hydrochloride] | 34 nM |
